Assay results: publication PMC9076067 (RSC Advances, 2019)
In brackets after ≈: the same amount, converted by molar mass. One block for each molecule: values may come before it.

Key:
[1] = parallel artificial membrane permeability assay; type: in vitro ADME; details: 200 μM in PBS pH 7.4, five hours, room temperature
Staphylococcus aureus = details: cited from earlier work
MRSA = details: cited from earlier work
[2] = test system: Staphylococcus aureus ATCC6538; test: MIC/MBC by micro-dilution broth method; type: cell-based; details: S. aureus ATCC 6538
[3] = test system: Staphylococcus epidermidis ATCC12228; test: MIC/MBC by micro-dilution broth method; type: cell-based; details: S. epidermidis ATCC 12228
[4] = test system: Staphylococcus aureus ATCC43300; test: MIC/MBC by micro-dilution broth method; type: cell-based; details: S. aureus ATCC 43300
[5] = test system: Streptococcus mutans ATCC25175; test: MIC/MBC by micro-dilution broth method; type: cell-based; details: S. mutans ATCC 25175
[6] = test system: Micrococcus luteus ATCC10240; test: MIC/MBC by micro-dilution broth method; type: cell-based

SMILES: O=C(O)CN1C(=O)/C(=C/c2ccc(-c3ccc(N(c4ccccc4)c4ccccc4)cc3)c3ccccc23)SC1=S [5b, (Z)-2-(5-((4-(4-(Diphenylamino)phenyl)naphthalen-1-yl)methylene)-4-oxo-2-thioxothiazolidin-3-yl)acetic acid]
ability to penetrate the membrane (PAMPA) [1]: none of the tested compounds had the ability to penetrate the cell membrane

SMILES: O=C(O)CN1C(=O)/C(=C/c2c3ccccc3c(-c3ccc(N(c4ccccc4)c4ccccc4)cc3)c3ccccc23)SC1=S [5c, (Z)-2-(5-((10-(4-(Diphenylamino)phenyl)anthracen-9-yl)methylene)-4-oxo-2-thioxothiazolidin-3-yl)acetic acid]
ability to penetrate the membrane (PAMPA) [1]: none of the tested compounds had the ability to penetrate the cell membrane

SMILES: O=C1NC(=S)SC1=Cc1ccc(F)c(F)c1F [5-(2,3,4-trifluorobenzylidene)-rhodanine]
concentration inhibiting growth (Staphylococcus aureus): 0.5 mg/L
concentration inhibiting growth (MRSA): 32 mg/L

SMILES: O=C(O)CN1C(=O)/C(=C/c2ccc(-c3ccc(N(c4ccccc4)c4ccccc4)cc3)cc2)SC1=S [5a, (Z)-2-(5-((4′-(Diphenylamino)-(1,1′-biphenyl)-4-yl)methylene)-4-oxo-2-thioxothiazolidin-3-yl)acetic acid]
ability to penetrate the membrane (PAMPA) [1]: none of the tested compounds had the ability to penetrate the cell membrane

MIC [2]: 1.95 µg/mL (≈ 3.86 µM)
MIC [3]: 1.95 µg/mL (≈ 3.86 µM)
MIC [4]: 1.95 µg/mL (≈ 3.86 µM)
MIC [5]: 62.5 µg/mL (≈ 124 µM)
MIC ([6]; M. luteus ATCC 10240): 1.95 µg/mL (≈ 3.86 µM)
MIC/MBC ([6]; ratio, ATCC 10240): 16
SMILES: O=C(O)CN1C(=O)/C(=C/c2ccc(-c3ccc(N(c4ccccc4)c4ccccc4)cc3)cc2)NC1=S [7a, (Z)-2-(5-((4′-(Diphenylamino)-(1,1′-biphenyl)-4-yl)methylene)-4-oxo-2-thioxoimidazolidin-3-yl)acetic acid]
